Reference: PubChem BioAssay (NCI)
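Cultured in 96-well plates, cells were exposed to test compound for 48 hours across five concentrations. At the GI50, growth is halved. TGI denotes the concentration required for complete inhibition of growth.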

Key:
Assay in all cases: DTP human tumour cell line panel, 48 h
EKVX NSCLC = tested on: EKVX NSCLC
COLO 205 colon = tested on: COLO 205 colon
SNB-75 CNS = tested on: SNB-75 CNS
NCI-H460 lung = tested on: NCI-H460 lung
BT-549 breast = tested on: BT-549 breast
MDA-MB-231 breast = tested on: MDA-MB-231 breast
MALME-3M melanoma = tested on: MALME-3M melanoma
SK-MEL-28 melanoma = tested on: SK-MEL-28 melanoma

SMILES | TGI (EKVX NSCLC) | TGI (COLO 205 colon) | TGI (SNB-75 CNS) | TGI (NCI-H460 lung) | TGI (BT-549 breast) | TGI (MDA-MB-231 breast) | TGI (MALME-3M melanoma) | TGI (SK-MEL-28 melanoma) | GI50 (MALME-3M melanoma)
CC(=O)Oc1ccn2nc(C)c(Br)c2c1 | > 100 µM | 75.5 µM | 97.2 µM | > 100 µM | > 100 µM | > 100 µM | > 100 µM | > 100 µM | –
COc1ccc([C@]23CCC4(OCC(C)(C)CO4)[C@H]4CON(O[C@H](O[C@@H]5CCCCC5C(C)(C)c5ccccc5)C2)[C@@H]43)cc1OC (some centres not stated) | > 100 µM | > 100 µM | > 100 µM | > 100 µM | > 100 µM | > 100 µM | > 100 µM | > 100 µM | –
O=C(c1ccc([N+](=O)[O-])cc1)N1CCCC1 | > 100 µM | – | > 100 µM | > 100 µM | > 100 µM | > 100 µM | > 100 µM | > 100 µM | –
CCn1ncc2c(=O)n3ncn(-c4ccc(Br)cc4)c3nc21 | > 100 µM | > 100 µM | > 100 µM | – | > 100 µM | > 100 µM | > 100 µM | > 100 µM | –
CS(=O)(=O)Nc1ccc2ccccc2c1 | > 100 µM | > 100 µM | > 100 µM | > 100 µM | > 100 µM | > 100 µM | > 100 µM | > 100 µM | –
CCOC(=O)C(NC(=O)c1cccc(Cl)c1)(Nc1cccc(C)c1)C(F)(F)F (configuration not stated) | 63.1 µM | 36.2 µM | 43.9 µM | 47.6 µM | 26.1 µM | 41.6 µM | 30.4 µM | 35.1 µM | –
N#CCCN(CCC#N)c1ccc(C(N=Nc2ccccc2)=Nc2ccc(F)cc2)cc1 | > 100 µM | > 100 µM | > 100 µM | > 100 µM | > 100 µM | > 100 µM | – | > 100 µM | –
CNC(=S)N1CCN(C(C)=O)C1=S | 91.9 µM | > 100 µM | 72.9 µM | > 100 µM | 51.7 µM | 16 µM | 43.2 µM | > 100 µM | –
O=C(c1ccco1)N(C(=O)N1CCC(c2ccccc2)CC1)c1ccccc1 | > 100 µM | > 100 µM | 46.2 µM | – | > 100 µM | > 100 µM | > 100 µM | > 100 µM | –
c1ccc2c(c1)cc1ccc3cccc4ccc2c1c34 | > 100 µM | > 100 µM | > 100 µM | > 100 µM | > 100 µM | > 100 µM | > 100 µM | > 100 µM | > 100 µM
O=C(C(=C(I)I)c1ccccc1)c1ccccc1 | > 100 µM | > 100 µM | – | > 100 µM | > 100 µM | – | 46.8 µM | 94.7 µM | –
C=C1[C@@H]2CCC3[C@]4(C)C(CC[C@@]5(C)C(=O)O[C@H](O)[C@@H]45)[C@H](O)[C@]3(C2)[C@H]1OC1OC(CO)C(O)C(O)C1O (some centres not stated) | > 50 µM | > 50 µM | > 50 µM | > 50 µM | > 50 µM | > 50 µM | > 50 µM | > 50 µM | –
CC1=C(C(=O)OCCO[N+](=O)[O-])C(c2ccccc2[N+](=O)[O-])C(C(=O)OC(C)C)=C(C)N1 (configuration not stated) | 53 µM | 29.7 µM | – | 34.2 µM | 30.4 µM | 29 µM | 35.9 µM | 30.4 µM | –
COc1cc2c(c(OC)c1)[C@H](C)N(Cc1ccccc1)C(C)C2 (some centres not stated) | > 100 µM | > 100 µM | > 100 µM | > 100 µM | > 100 µM | > 100 µM | > 100 µM | > 100 µM | –
Cc1nc2c(=O)n(-c3ccccc3)c(=O)n(-c3ccccc3)c2o1 | > 100 µM | > 100 µM | > 100 µM | > 100 µM | > 100 µM | > 100 µM | > 100 µM | – | –
CC[C@H](NC(=O)OC(C)(C)C)C(=O)NCP(=O)(OCc1ccc([N+](=O)[O-])cc1)OCc1ccc([N+](=O)[O-])cc1 | – | 30 µM | > 100 µM | > 100 µM | > 100 µM | > 100 µM | > 100 µM | 92.9 µM | –
CC/C=N\N1C(N)=C(C#N)C(C#N)(C#N)C1CC (configuration not stated) | > 100 µM | > 100 µM | > 100 µM | – | > 100 µM | > 100 µM | > 100 µM | > 100 µM | –
N#C/C(C(=O)NCc1ccccc1)=C(/N)N1CCCC1 | > 100 µM | > 100 µM | – | > 100 µM | – | > 100 µM | > 100 µM | > 100 µM | –
C=C1C[C@@H]2O[C@H]3[C@H]4[C@@H](C[C@@H](C)[C@@H](OC(C)=O)[C@H]42)[C@@H](C)CO[C@@]3(C)[C@H](OC(=O)CCCCCCC)CC1=O | 32.9 µM | 27.3 µM | 24.8 µM | 24.2 µM | 36.9 µM | 36.7 µM | – | 28.7 µM | –
CSc1ncc2c(n1)-c1ccccc1OC2NC1CC1 (configuration not stated) | > 100 µM | > 100 µM | > 100 µM | > 100 µM | > 100 µM | > 100 µM | – | – | –

SMILES | TGI (EKVX NSCLC) | TGI (COLO 205 colon) | TGI (SNB-75 CNS) | TGI (NCI-H460 lung) | TGI (BT-549 breast) | TGI (MDA-MB-231 breast) | TGI (MALME-3M melanoma) | TGI (SK-MEL-28 melanoma) | GI50 (MALME-3M melanoma)
Cn1c(=O)cc(NNc2ccc(Cl)c(Cl)c2)[nH]c1=O | 24.2 µM | 35.8 µM | 48.4 µM | 20.3 µM | 29.9 µM | 23.9 µM | – | 25.1 µM | –
C=C(C)[C@H]1CC23C(=O)[C@@](C)(C[C@H]2C1(C)C)C(=O)C(C(=O)C(C)C)=C3O | 28.8 µM | 23.1 µM | – | 45.3 µM | 37.7 µM | 32.2 µM | 28.6 µM | 28.6 µM | –
COc1ccc(-c2cc3cc(Cl)cc(Cl)c3oc2=O)cc1OC | > 100 µM | > 100 µM | – | > 100 µM | > 100 µM | > 100 µM | > 100 µM | > 100 µM | –
CSc1ccc(/C=C2\N=C(c3ccccc3)N(c3nc4cc(Cl)c(F)cc4s3)C2=O)cc1 | > 100 µM | > 100 µM | 66.6 µM | > 100 µM | > 100 µM | > 100 µM | – | > 100 µM | –
CC(C)=C/C(CC(O)(C(F)(F)F)C(F)(F)F)=N\O | > 100 µM | > 100 µM | > 100 µM | > 100 µM | – | > 100 µM | > 100 µM | > 100 µM | –
O=c1c2ccc(Cl)cc2oc2c(CNc3ccc(S(=O)(=O)Nc4ncccn4)cc3)cccc12 | > 100 µM | > 100 µM | > 100 µM | – | > 100 µM | > 100 µM | > 100 µM | > 100 µM | –
O=C1c2cc3c(cc2CC12Cc1ccc4c(c1C2=O)CCC4)CCC3 (configuration not stated) | > 100 µM | – | > 100 µM | > 100 µM | – | > 100 µM | > 100 µM | > 100 µM | –
CCN(CC)C(=S)N/N=C(/c1ccccc1)c1ccccn1 | > 56.7 µM | 0.0942 µM | 7.59 µM | 0.385 µM | > 100 µM | – | > 47.1 µM | > 79.7 µM | –
CC(=O)Oc1ccc2c(-c3ccccc3)c(Oc3ccc(Cl)cc3)c(=O)oc2c1 | 29 µM | – | 19.5 µM | 27.9 µM | 32.9 µM | 32.8 µM | 28.9 µM | 31.6 µM | –
CN1C2=Nc3n(c4ccccc4[n+]3C)CN2c2ccccc21 | > 100 µM | 41.9 µM | – | > 100 µM | > 100 µM | > 100 µM | 18 µM | – | –
CC(=O)/C(=N\Nc1ccc(Cl)cc1)C(C)=Nc1ccc(C)cc1 | > 100 µM | 43.1 µM | > 100 µM | – | > 100 µM | > 100 µM | 59.2 µM | > 100 µM | –
Oc1ccccc1/C=N/N1C(=S)N(C23CC4CC(CC(C4)C2)C3)C(=Nc2ccccc2)C1=Nc1ccccc1 | > 100 µM | > 100 µM | – | > 100 µM | > 100 µM | > 100 µM | > 100 µM | > 100 µM | –
CCCCNC(=O)Cn1c2ccc(Br)cc2c2nc3ccccc3nc21 | – | > 100 µM | > 100 µM | – | – | > 100 µM | – | > 100 µM | –
O=C(NC(C(F)(F)F)(C(F)(F)F)P(=O)(Cc1ccccc1)Cc1ccccc1)C(C(F)(F)F)C(F)(F)F | 58.9 µM | 38 µM | – | 78.3 µM | – | 38.8 µM | 47.1 µM | 53.1 µM | –
CCOC(=O)/C=C/CCC(C)(C)COC(C)=O | > 10 µM | > 10 µM | > 10 µM | > 10 µM | – | > 10 µM | – | > 10 µM | –
O=C1CSC(c2c[nH]c3ccccc23)N1c1ccc(Cl)cc1Cl (configuration not stated) | > 100 µM | > 100 µM | > 100 µM | > 100 µM | > 100 µM | > 100 µM | – | > 100 µM | –
Cc1cc(-c2cc(C(C)(C)C)c(O)c(C(C)(C)C)c2)c(C)cc1-c1cc(C(C)(C)C)c(O)c(C(C)(C)C)c1 | > 100 µM | > 100 µM | > 100 µM | – | > 100 µM | > 100 µM | > 100 µM | > 100 µM | –
Nc1c(N2CCOCC2)c(=O)nc2[nH]/c(=C\c3ccccc3O)c(=O)n12 | > 100 µM | > 100 µM | > 100 µM | > 100 µM | – | > 100 µM | > 100 µM | > 100 µM | –
CC(C)(C)/C(O)=C\c1nc2cc(F)c(F)cc2[nH]c1=O | > 100 µM | > 100 µM | > 100 µM | > 100 µM | > 100 µM | 71.7 µM | – | > 100 µM | –
